According to patent publication US6166023A, “1,5- and 3-O-substituted 1H-indazoles having anti-asthmatic, anti-allergic, anti-inflammatory, immunomodulating and neuroprotective action, process for their preparation and their use as medicaments” (Arzneimittelwerk Dresden GmbH, priority 1998, dated 2000):

How the values were obtained:
human cyclophilin B = human cyclophilin B (Homo sapiens, UniProt P23284); test: Peptidylprolyl isomerase (PPIase) activity inhibition assay; assay type: biochemical; details: Cyp B, test peptide Suc-Ala-Ala-Pro-Phe-Nan
Procedure: To determine the anti-asthmatic, anti-allergic, anti-inflammatory and/or immunomodulating properties of the compounds according to the invention, in-vitro and in-vivo investigations were carried out. […] For the initial screening (10 μmol/l), the inhibition of human cyclophilin B in the PPIase test is determined.
The PPIase activity is tested according to a globally customary enzyme test: G. Fischer, H. Bang, C. Mech, Biomed. Biochim. Acta 43 1101-1111; G. Fischer, H. Bang, A. Schellenberger, Biochim. Biophys. Acta 791 (1984), 87-97; D. H. Rich et al., J. Med. Chem. 38 (1995), 4164-4170.
The compounds of the general formula I according to the invention are preincubated at 4° C. for 15 minutes together with 10 nmol of Cyp B. The enzyme reaction is started using the test peptide Suc-Ala-Ala-Pro-Phe-Nan after addition of chymotrypsin and HEPES buffer. The extinction change at 390 nm is then monitored and evaluated. The photometrically determined extinction change results from two sub-reactions: a) the rapid chymotryptic cleavage of the trans-peptide; b) the non-enzymatic cis-trans isomerization, which is catalysed by cyclophilins.

[1] = tested on: pulmonary eosinophil infiltration; test: Inhibition of late-phase eosinophilia 24 h after inhalational ovalbumin challenge in actively sensitized guinea-pigs; assay type: in vivo; details: BAL 24 h after OVA challenge
Procedure: The inhibition of pulmonary eosinophil infiltration by the substances is tested in an in-vivo test on male Dunkin-Hartley guinea-pigs (200-250 g) sensitized against ovalbumin (OVA). The sensitization is carried out by means of two intraperitoneal injections of a suspension of 20 μg of OVA together with 20 mg of aluminium hydroxide as an adjuvant in 0.5 ml of physiological saline solution per animal on two successive days. 14 days after the second injection, the animals are pretreated with mepyramine maleate (10 mg/kg i.p.) in order to protect them from anaphylactic death. 30 minutes later, the animals are exposed for 30 sec in a plastic box to an OVA aerosol (0.5 mg/ml) which is generated by a nebulizer driven by compressed air (19.6 kPa) (allergen challenge). Control animals are nebulized with physiological saline solution. 24 hours after the challenge, the animals are anaesthetized with an overdose of ethylurethane (1.5 g/kg of body weight i.p.) and a bronchoalveolar lavage (BAL) is carried out with 2×5 ml of physiological saline solution. The BAL fluid is collected, centrifuged at 300 rpm for 10 min and the cell pellet is then resuspended in 1 ml of physiological saline solution. The eosinophils are stained using the Becton-Dickinson test kit (N. 5877) for eosinophils and counted in a Neubauer chamber. 2 control groups (nebulization with physiological saline solution and nebulization with OVA solution) are additionally included in each test.
The percentage inhibition of the eosinophilia of the test group treated with substance is calculated according to the following formula:
(A-C)-(B-C)/(A-C)×100=% inhibition
The test substances are administered intraperitoneally or orally as a suspension in 10% polyethylene glycol 300 and 0.5% strength 5-hydroxyethylcellulose 2 hours before allergen challenge. The control groups are treated with the vehicle according to the administration form of the test substance. The number of animals per control and test group is 3-10.

Chain of human cyclophilin B (P23284 34-216): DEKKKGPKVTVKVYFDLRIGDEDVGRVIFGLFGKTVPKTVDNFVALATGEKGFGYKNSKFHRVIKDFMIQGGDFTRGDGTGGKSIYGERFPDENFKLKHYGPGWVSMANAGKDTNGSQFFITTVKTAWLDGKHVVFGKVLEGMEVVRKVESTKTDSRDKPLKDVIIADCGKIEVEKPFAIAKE

SMILES | inhibition at 10 µM (human cyclophilin B) | Eosinophil million/animal x ± s, B = group treated with substance with OVA challenge ([1]; 10 mg/kg i.p. -2 h) | Inhibition [%] of eosinophilia ([1]; 10 mg/kg i.p. -2 h) | Eosinophil million/animal x ± s, B = group treated with substance with OVA challenge ([1]; 30 mg/kg p.o. -2 h) | Inhibition [%] of eosinophilia ([1]; 30 mg/kg p.o. -2 h)
COc1ccc2c(c1)c(OCCOc1c(F)cc(F)cc1Br)nn2S(=O)(=O)c1ccc(C)cc1 [Example 1, 3-[2-(2-Bromo-4,6-difluorophenoxy)ethoxy]-5-methoxy-1-(toluene-4-sulphonyl)-1H-indazole] | 95% | 1.23 ± 0.38 million/animal | 61% | 1.75 ± 1.86 million/animal | 65%
COc1ccc2c(c1)c(OCCOc1ccc(Cl)cc1)nn2S(=O)(=O)c1ccc(Cl)cc1 [Example 7] | 70% | – | – | – | –
COc1ccc2c(c1)c(OCCOc1ccc(Cl)cc1)nn2S(=O)(=O)c1ccc(F)cc1 [Example 8] | – | 1.84 ± 0.94 million/animal | 41% | – | –
COc1ccc(S(=O)(=O)n2nc(OCCOc3ccc(Cl)cc3)c3cc(OC)ccc32)cc1 [Example 9] | 90% | – | – | – | –
COc1ccc2c(c1)c(OCCOc1ccc([N+](=O)[O-])cc1)nn2Cc1ccc(F)cc1 [Example 91, 1-(4-Fluorobenzyl)-5-methoxy-3-[2-(4-nitrophenoxy)ethoxy]-1H-indazole] | – | 1.16 ± 0.65 million/animal | 71% | – | –
COc1ccc2c(c1)c(OCCOc1c(F)cc(F)cc1Br)nn2CCOc1ccc([N+](=O)[O-])cc1 [Example 99, 3-[2-(2-Bromo-4,6-difluorophenoxy)ethoxy]-5-methoxy-1-[2-(4-nitrophenoxy)ethyl]-1H-indazole] | – | 1.35 ± 0.67 million/animal | 46% | 1.33 ± 0.23 million/animal | 33%
COc1ccc2c(c1)c(OCc1cc(C(C)=O)ccc1OC)nn2CCOc1ccc([N+](=O)[O-])cc1 [Example 107] | – | 1.44 ± 0.92 million/animal | 68% | – | –

More lines, main results first:

inhibition at 10 µM (human cyclophilin B) | SMILES | Eosinophil million/animal x ± s, B = group treated with substance with OVA challenge ([1]; 10 mg/kg i.p. -2 h) | Inhibition [%] of eosinophilia ([1]; 10 mg/kg i.p. -2 h) | Eosinophil million/animal x ± s, B = group treated with substance with OVA challenge ([1]; 30 mg/kg p.o. -2 h) | Inhibition [%] of eosinophilia ([1]; 30 mg/kg p.o. -2 h)
70% | COc1ccc2c(c1)c(OCc1noc(-c3cccc(C(F)(F)F)c3)n1)nn2S(=O)(=O)c1ccc(C)cc1 [Example 32, 5-Methoxy-1-(toluene-4-sulphonyl)-3-[5-(3-trifluoromethylphenyl)-1,2,4-oxadiazol-3-ylmethoxy]-1H-indazole] | 0.86 ± 0.49 million/animal | 85% | – | –
71% | COc1ccc2c(c1)c(OCc1ccc(Cl)cc1[N+](=O)[O-])nn2S(=O)(=O)c1ccc(C)cc1 [Example 41] | – | – | – | –
40% | COc1ccc2c(c1)c(OCC(=O)Nc1ccc(F)cc1F)nn2S(=O)(=O)c1ccc(C)cc1 [Example 66, N-(2,4-Difluorophenyl)-2-[5-methoxy-1-(toluene-4-sulphonyl)-1H-indazol-3-yloxy]acetamide] | – | – | – | –
67% | COc1ccc2c(c1)c(OCC(=O)Nc1ccc(Cl)cc1Cl)nn2S(=O)(=O)c1ccc(C)cc1 [Example 73] | – | – | – | –
90% | COc1ccc2c(c1)c(OCc1c(Cl)cccc1Cl)nn2Cc1cccc([N+](=O)[O-])c1 [Example 84] | – | – | – | –
100% | O=C(Nc1ccc2c(c1)c(OCCOc1ccc([N+](=O)[O-])cc1)nn2Cc1ccc(Cl)cc1Cl)Nc1cccc2ccccc12 [Example 114, 1-{1-(2,4-Dichlorobenzyl)-3-[2-(4-nitrophenoxy)ethoxy]-1H-indazol-5-yl}-3-naphthalen-1-ylurea] | 1.19 ± 0.43 million/animal | 58% | – | –
90% | O=C(Nc1ccc2c(c1)c(OCCOc1ccc([N+](=O)[O-])cc1)nn2Cc1ccc(Cl)c(Cl)c1)Nc1cccc2ccccc12 [Example 116] | – | – | – | –
